Test results reported in ChEMBL document CHEMBL3885881, “DrugMatrix”.

Organism: Rattus norvegicus
Test: DrugMatrix - Regimen: Daily Repeat
Type: toxicity, organism-based, Sprague-Dawley
Design: regimen Daily Repeat, gender Male, age 6-8 weeks
Conditions: in vivo, iv, vehicle 100 % SALINE; for ABSOLUTE BASOPHIL / ABSOLUTE EOSINOPHIL / ABSOLUTE LYMPHOCYTE / ABSOLUTE MONOCYTE / ABSOLUTE SEGMENTED NEUTROPHIL / BASOPHIL / EOSINOPHIL / ERYTHROCYTE COUNT / HEMATOCRIT / HEMOGLOBIN / LEUKOCYTE COUNT / LYMPHOCYTE / MEAN CORPUSCULAR HEMOGLOBIN / MEAN CORPUSCULAR HEMOGLOBIN CONCENTRATION / MEAN CORPUSCULAR VOLUME / MONOCYTE / NEUTROPHIL / NUCLEATED RED BLOOD CELLS / PLATELET COUNT: tissue Blood; for ALANINE AMINOTRANSFERASE / ALBUMIN / ALKALINE PHOSPHATASE / ASPARTATE AMINOTRANSFERASE / BLOOD UREA NITROGEN / CARBON DIOXIDE / CHLORIDE / CHOLESTEROL / CREATINE PHOSPHOKINASE / CREATININE / GLUCOSE / LACTATE DEHYDROGENASE / LIPASE / PHOSPHORUS / POTASSIUM / SODIUM / TOTAL BILIRUBIN / TOTAL PROTEIN / URIC ACID: tissue Plasma
[1] = 11 mg/kg, 72 h, dose level High, time 3 day
[2] = 11 mg/kg, 120 h, dose level High, time 5 day
[3] = […], 72 h, dose 2.6 mg/Kg, dose level Low, time 3 day
[4] = […], 120 h, dose 2.6 mg/Kg, dose level Low, time 5 day

Nc1ccn([C@@H]2O[C@H](CO)[C@@H](O)C2(F)F)c(=O)n1 [GEMCITABINE]
ABSOLUTE BASOPHIL [1]: 0 CELLS/uL
ABSOLUTE EOSINOPHIL [1]: 0 CELLS/uL
ABSOLUTE LYMPHOCYTE [1]: 4311.33 CELLS/uL
ABSOLUTE MONOCYTE [1]: 21.67 CELLS/uL
ABSOLUTE SEGMENTED NEUTROPHIL [1]: 200.33 CELLS/uL
BASOPHIL [1]: 0%
EOSINOPHIL [1]: 0%
ERYTHROCYTE COUNT [1]: 5.19 x10E6/uL
HEMATOCRIT [1]: 33.27%
HEMOGLOBIN [1]: 13.03 G/DL
LEUKOCYTE COUNT [1]: 4.53 x10E3/uL
LYMPHOCYTE [1]: 95%
MEAN CORPUSCULAR HEMOGLOBIN [1]: 25.07 pg
MEAN CORPUSCULAR HEMOGLOBIN CONCENTRATION [1]: 39.2 G/DL
MEAN CORPUSCULAR VOLUME [1]: 63.93 fL
MONOCYTE [1]: 0.33%
NEUTROPHIL [1]: 4.67%
NUCLEATED RED BLOOD CELLS [1]: 0 /100WBC
PLATELET COUNT [1]: 706.67 x10E3/uL
ALANINE AMINOTRANSFERASE [1]: 46.67 u/L
ALBUMIN [1]: 3.5 G/DL
ALKALINE PHOSPHATASE [1]: 373 u/L
ASPARTATE AMINOTRANSFERASE [1]: 100.67 u/L
BLOOD UREA NITROGEN [1]: 15.67 mg/dL
CARBON DIOXIDE [1]: 24.33 mmol/L
CHLORIDE [1]: 107.33 MEQ/L
CHOLESTEROL [1]: 63.33 mg/dL
CREATINE PHOSPHOKINASE [1]: 316.67 u/L
CREATININE [1]: 0.13 mg/dL
GLUCOSE [1]: 143 mg/dL
LACTATE DEHYDROGENASE [1]: 80.33 u/L
LIPASE [1]: 8 u/L
PHOSPHORUS [1]: 9.73 mg/dL
POTASSIUM [1]: 5.2 MEQ/L
SODIUM [1]: 145.57 MEQ/L
TOTAL BILIRUBIN [1]: 0.17 mg/dL
TOTAL PROTEIN [1]: 4.97 G/DL
URIC ACID [1]: 1.3 mg/dL
ABSOLUTE BASOPHIL [2]: 0 CELLS/uL
ABSOLUTE EOSINOPHIL [2]: 12.67 CELLS/uL
ABSOLUTE LYMPHOCYTE [2]: 2696.33 CELLS/uL
ABSOLUTE MONOCYTE [2]: 10 CELLS/uL
ABSOLUTE SEGMENTED NEUTROPHIL [2]: 47.67 CELLS/uL
BASOPHIL [2]: 0%
EOSINOPHIL [2]: 0.33%
ERYTHROCYTE COUNT [2]: 8.1 x10E6/uL
HEMATOCRIT [2]: 50%
HEMOGLOBIN [2]: 19.4 G/DL
LEUKOCYTE COUNT [2]: 2.77 x10E3/uL
LYMPHOCYTE [2]: 97.67%
MEAN CORPUSCULAR HEMOGLOBIN [2]: 24 pg
MEAN CORPUSCULAR HEMOGLOBIN CONCENTRATION [2]: 38.9 G/DL
MEAN CORPUSCULAR VOLUME [2]: 61.67 fL
MONOCYTE [2]: 0.33%
NEUTROPHIL [2]: 1.67%
NUCLEATED RED BLOOD CELLS [2]: 0.33 /100WBC
PLATELET COUNT [2]: 374.33 x10E3/uL
ALANINE AMINOTRANSFERASE [2]: 34.67 u/L
ALBUMIN [2]: 3.5 G/DL
ALKALINE PHOSPHATASE [2]: 152.67 u/L
ASPARTATE AMINOTRANSFERASE [2]: 232 u/L
BLOOD UREA NITROGEN [2]: 36.67 mg/dL
CARBON DIOXIDE [2]: 26.33 mmol/L
CHLORIDE [2]: 107 MEQ/L
CHOLESTEROL [2]: 104.67 mg/dL
CREATINE PHOSPHOKINASE [2]: 2721.33 u/L
CREATININE [2]: 0.23 mg/dL
GLUCOSE [2]: 286.33 mg/dL
LACTATE DEHYDROGENASE [2]: 384.67 u/L
LIPASE [2]: 10.33 u/L
PHOSPHORUS [2]: 10.93 mg/dL
POTASSIUM [2]: 4.87 MEQ/L
SODIUM [2]: 146.9 MEQ/L
TOTAL BILIRUBIN [2]: 0.1 mg/dL
TOTAL PROTEIN [2]: 6.03 G/DL
URIC ACID [2]: 1.6 mg/dL
ABSOLUTE BASOPHIL [3]: 0 CELLS/uL
ABSOLUTE EOSINOPHIL [3]: 0 CELLS/uL
ABSOLUTE LYMPHOCYTE [3]: 7048.67 CELLS/uL
ABSOLUTE MONOCYTE [3]: 0 CELLS/uL
ABSOLUTE SEGMENTED NEUTROPHIL [3]: 484.67 CELLS/uL
BASOPHIL [3]: 0%
EOSINOPHIL [3]: 0%
ERYTHROCYTE COUNT [3]: 5.03 x10E6/uL
HEMATOCRIT [3]: 31.87%
HEMOGLOBIN [3]: 12.73 G/DL
LEUKOCYTE COUNT [3]: 7.53 x10E3/uL
LYMPHOCYTE [3]: 93.67%
MEAN CORPUSCULAR HEMOGLOBIN [3]: 25.37 pg
MEAN CORPUSCULAR HEMOGLOBIN CONCENTRATION [3]: 39.97 G/DL
MEAN CORPUSCULAR VOLUME [3]: 63.43 fL
MONOCYTE [3]: 0%
NEUTROPHIL [3]: 6.33%
NUCLEATED RED BLOOD CELLS [3]: 0 /100WBC
PLATELET COUNT [3]: 1190.67 x10E3/uL
ALANINE AMINOTRANSFERASE [3]: 55.33 u/L
ALBUMIN [3]: 4.03 G/DL
ALKALINE PHOSPHATASE [3]: 332.67 u/L
ASPARTATE AMINOTRANSFERASE [3]: 110 u/L
BLOOD UREA NITROGEN [3]: 16.67 mg/dL
CARBON DIOXIDE [3]: 25 mmol/L
CHLORIDE [3]: 97.67 MEQ/L
CHOLESTEROL [3]: 76.67 mg/dL
CREATINE PHOSPHOKINASE [3]: 485.33 u/L
CREATININE [3]: 0.14 mg/dL
GLUCOSE [3]: 175.33 mg/dL
LACTATE DEHYDROGENASE [3]: 141.67 u/L
LIPASE [3]: 9 u/L
PHOSPHORUS [3]: 12.07 mg/dL
POTASSIUM [3]: 6.4 MEQ/L
SODIUM [3]: 141.6 MEQ/L
TOTAL BILIRUBIN [3]: 0.2 mg/dL
TOTAL PROTEIN [3]: 5.93 G/DL
URIC ACID [3]: 1.5 mg/dL
ABSOLUTE BASOPHIL [4]: 0 CELLS/uL
ABSOLUTE EOSINOPHIL [4]: 0 CELLS/uL
ABSOLUTE LYMPHOCYTE [4]: 4224 CELLS/uL
ABSOLUTE MONOCYTE [4]: 19 CELLS/uL
ABSOLUTE SEGMENTED NEUTROPHIL [4]: 23.67 CELLS/uL
BASOPHIL [4]: 0%
EOSINOPHIL [4]: 0%
ERYTHROCYTE COUNT [4]: 5.09 x10E6/uL
HEMATOCRIT [4]: 32.1%
HEMOGLOBIN [4]: 12.83 G/DL
LEUKOCYTE COUNT [4]: 4.27 x10E3/uL
LYMPHOCYTE [4]: 99%
MEAN CORPUSCULAR HEMOGLOBIN [4]: 25.2 pg
MEAN CORPUSCULAR HEMOGLOBIN CONCENTRATION [4]: 39.97 G/DL
MEAN CORPUSCULAR VOLUME [4]: 63.1 fL
MONOCYTE [4]: 0.33%
NEUTROPHIL [4]: 0.67%
NUCLEATED RED BLOOD CELLS [4]: 0.33 /100WBC
PLATELET COUNT [4]: 699.67 x10E3/uL
ALANINE AMINOTRANSFERASE [4]: 46.33 u/L
ALBUMIN [4]: 4.17 G/DL
ALKALINE PHOSPHATASE [4]: 368 u/L
ASPARTATE AMINOTRANSFERASE [4]: 127.67 u/L
BLOOD UREA NITROGEN [4]: 13.33 mg/dL
CARBON DIOXIDE [4]: 24.67 mmol/L
CHLORIDE [4]: 104 MEQ/L
CHOLESTEROL [4]: 70.67 mg/dL
CREATINE PHOSPHOKINASE [4]: 350.33 u/L
CREATININE [4]: 0.12 mg/dL
GLUCOSE [4]: 151.67 mg/dL
LACTATE DEHYDROGENASE [4]: 93.33 u/L
LIPASE [4]: 8 u/L
PHOSPHORUS [4]: 11.03 mg/dL
POTASSIUM [4]: 6.21 MEQ/L
SODIUM [4]: 143.67 MEQ/L
TOTAL BILIRUBIN [4]: 0.1 mg/dL
TOTAL PROTEIN [4]: 6.03 G/DL
URIC ACID [4]: 1.63 mg/dL
